From patent US20240082296A1, “TREATMENT OF MUSCLE ATROPHY USING DEXTRAN SULFATE” (TX MEDIC AB, priority 2020, published 2024)
Marks after values point to notes of the source that are not given here.

System: severe traumatic brain injury (sTBI) in rats
Assay: HPLC of purine-pyrimidine / energy metabolites in rat brain after sTBI (Example 4)
Assay type: in vivo
Experimental: The effects of daily sub-cutaneous injections of dextran sulfate on glutamate excitotoxicity and mitochondrial function after severe traumatic brain injury (sTBI) in rats were evaluated by high-performance liquid chromatography (HPLC) analysis of frozen brain samples.
The experimental protocol used in this study was approved by the Ethical Committee of the Catholic University of Rome, according to international standards and guidelines for animal care. Male Wistar rats of 300-350 g body weight (b.w.) were fed with standard laboratory diet and water ad libitum in a controlled environment.
They were divided into three groups: • 1) n=6 animals subjected to sTBI, with drug administration after 30 minutes and sacrifice at 2 days post-TBI (Acute phase 1) • 2) n=6 animals subjected to severe-TBI, with drug administration after 30 minutes and sacrifice at 7 days post-TBI (Acute phase 2). • 3) n=6 animals subjected to severe-TBI, with drug administration after 3 days and sacrifice at 7 days post-TBI (Chronic phase).
As the anesthetic mixture, animals received 35 mg/kg b.w. ketamine and 0.25 mg/kg b.w. midazolam by i.p. injection. sTBI was induced by dropping a 450 g weight from 2 m height on to the rat head that had been protected by a metal disk previously fixed on the skull, according to the “weight drop” impact acceleration model (Marmarou et al., A new model of diffuse brain injury in rats. Part I: Pathophysiology and biomechanics. J Neurosurg. 1994; 80: 291-300). […] At the end of each period of treatment, rats were anesthetized again and then immediately sacrificed.
The drug treatment was a subcutaneous injection of 0.5 ml of dextran sulfate (Tikomed AB, Viken, Sweden, WO 2016/076780; 15 mg/kg) and administered according to the aforementioned schematic protocol.
An in vivo craniectomy was performed in all animals during anesthesia, after carefully removing the rat's skull, the brain was exposed and removed with a surgical spatula and quickly dropped in liquid nitrogen. After the wet weight (w.w.) determination, tissue preparation was affected as previously disclosed (Tavazzi et al., Cerebral oxidative stress and depression of energy metabolism correlate with severity of diffuse brain injury in rats. Neurosurgery. 2005; 56: 582-589; Vagnozzi et al., Temporal window of metabolic brain vulnerability to concussions: mitochondrial-related impairment-part I. Neurosurgery. 2007; 61: 379-388; Tavazzi et al., Temporal window of metabolic brain vulnerability to concussions: oxidative and nitrosative stresses-part II. Neurosurgery. 2007; 61: 390-395; Amorini et al., Severity of experimental traumatic brain injury modulates changes in concentrations of cerebral free amino acids. J Cell Mol Med. 2017; 21: 530-542.). Briefly, whole brain homogenization was performed with 7 ml of ice-cold, nitrogen-saturated, precipitating solution composed by CH3CN+10 mM KH2PO4, pH 7.40, (3:1; v:v), and using an Ultra-Turrax set at 24,000 rpm/min (Janke & Kunkel, Staufen, Germany). After centrifugation at 20,690×g, for 10 min at 4° C., the clear supernatants were saved, pellets were supplemented with 3 ml of the precipitating solution and homogenized again as described above. A second centrifugation was performed (20,690×g, for 10 min at 4° C.), pellets were saved, supernatants combined with those previously obtained, extracted by vigorous agitation with a double volume of HPLC-grade CHCl3 and centrifuged as above. The upper aqueous phases containing water-soluble low-molecular weight compounds were collected, subjected to chloroform washings for two more times (this procedure allowed the removal of all the organic solvent and of any lipid soluble compound from the buffered tissue extracts), adjusted in volumes with 10 mM KH2PO4, pH 7.40, to have ultimately aqueous 10% tissue homogenates and saved at −80° C. until assayed. […]

[1] = Acute phase 1 (15 mg/kg s.c. 30 min after sTBI, sacrifice 2 days post-TBI)
[2] = Acute phase 2 (15 mg/kg s.c. 30 min after sTBI, sacrifice 7 days post-TBI)

Substance: dextran sulfate
- ADO concentration [1]: 71.67 ± 15.87 nmol/g (w.w.)
- ADP concentration [1]: 279.34 ± 29.59^b nmol/g (w.w.)
- ADP-ribose concentration [1]: 137.87 ± 43.18^a nmol/g (w.w.)
- AMP concentration [1]: 53.61 ± 17.91^a,c,j nmol/g (w.w.)
- ATP concentration [1]: 1464.25 ± 99.09^a,h nmol/g (w.w.)
- CDP choline concentration [1]: 10.93 ± 3.22^b,h nmol/g (w.w.)
- CDP concentration [1]: 25.53 ± 6.83^a,c nmol/g (w.w.)
- CMP concentration [1]: 30.12 ± 9.97^a,h nmol/g (w.w.)
- CTP concentration [1]: 18.98 ± 6.58^a,g nmol/g (w.w.)
- CoA-SH concentration [1]: 21.61 ± 3.42^a,h nmol/g (w.w.)
- GDP concentration [1]: 158.72 ± 24.57^a nmol/g (w.w.)
- GDP glucose concentration [1]: 38.71 ± 6.86 nmol/g (w.w.)
- GMP concentration [1]: 177.00 ± 32.39^a,g nmol/g (w.w.)
- GSH concentration [1]: 2649.50 ± 397.31^a,d nmol/g (w.w.)
- GSSG concentration [1]: 185.21 ± 48.10 nmol/g (w.w.)
- GTP concentration [1]: 255.29 ± 45.21^a,g nmol/g (w.w.)
- IMP concentration [1]: 67.71 ± 10.63^g,i nmol/g (w.w.)
- MDA concentration [1]: 12.47 ± 2.09^a,c,g nmol/g (w.w.)
- NAA concentration [1]: 6147.91 ± 989.12^a nmol/g (w.w.)
- NADH concentration [1]: 15.49 ± 2.05^c,j nmol/g (w.w.)
- NADPH concentration [1]: 6.22 ± 1.73 nmol/g (w.w.)
- NADP^+ concentration [1]: 17.95 ± 3.28^a nmol/g (w.w.)
- NAD^+ concentration [1]: 404.63 ± 51.10^a,c,i nmol/g (w.w.)
- NO2 concentration [1]: 216.03 ± 41.74^a nmol/g (w.w.)
- NO3 concentration [1]: 210.64 ± 91.95^d nmol/g (w.w.)
- UDP concentration [1]: 61.83 ± 10.23^a,g nmol/g (w.w.)
- UDP-Gal concentration [1]: 119.45 ± 12.50 nmol/g (w.w.)
- UDP-GalNac concentration [1]: 19.17 ± 4.01^a nmol/g (w.w.)
- UDP-Glc concentration [1]: 32.14 ± 4.59^g nmol/g (w.w.)
- UDP-GlcNac concentration [1]: 95.85 ± 19.73^h,i nmol/g (w.w.)
- UMP concentration [1]: 107.80 ± 21.62 nmol/g (w.w.)
- UTP concentration [1]: 123.46 ± 15.42^d nmol/g (w.w.)
- acetyl-CoA concentration [1]: 21.56 ± 6.22^a,g,i nmol/g (w.w.)
- adenine concentration [1]: 44.82 ± 6.31^a,d,g nmol/g (w.w.)
- ascorbic acid concentration [1]: 3733.10 ± 277.88^a,d nmol/g (w.w.)
- creatinine concentration [1]: 24.55 ± 3.20^b,g,i nmol/g (w.w.)
- cytidine concentration [1]: 15.40 ± 3.04 nmol/g (w.w.)
- cytosine concentration [1]: 17.69 ± 2.50^b,d nmol/g (w.w.)
- guanine concentration [1]: 4.80 ± 1.24^b nmol/g (w.w.)
- guanosine concentration [1]: 20.71 ± 5.66 nmol/g (w.w.)
- hypoxanthine concentration [1]: 14.47 ± 2.87^a nmol/g (w.w.)
- inosine concentration [1]: 92.55 ± 31.20^c nmol/g (w.w.)
- malonyl-CoA concentration [1]: 12.33 ± 1.82^b nmol/g (w.w.)
- orotic acid concentration [1]: 8.80 ± 2.45^b,h,j nmol/g (w.w.)
- thymidine concentration [1]: 0.69 ± 0.11 nmol/g (w.w.)
- uracil concentration [1]: 14.56 ± 5.44 nmol/g (w.w.)
- uric acid concentration [1]: 23.62 ± 3.77^a,d,h nmol/g (w.w.)
- uridine concentration [1]: 76.35 ± 12.85^a,c nmol/g (w.w.)
- xanthine concentration [1]: 9.46 ± 2.34^d nmol/g (w.w.)
- β-pseudouridine concentration [1]: 6.65 ± 1.30^g,i nmol/g (w.w.)
- ADO concentration [2]: 82.11 ± 16.51^a nmol/g (w.w.)
- ADP concentration [2]: 264.07 ± 28.29^b,e,j nmol/g (w.w.)
- ADP-ribose concentration [2]: 141.96 ± 23.56^a,e,j nmol/g (w.w.)
- AMP concentration [2]: 57.70 ± 23.01^a,e,j nmol/g (w.w.)
- ATP concentration [2]: 1632.23 ± 90.07^a,e,j nmol/g (w.w.)
- CDP choline concentration [2]: 6.91 ± 1.86 nmol/g (w.w.)
- CDP concentration [2]: 24.29 ± 6.76^a nmol/g (w.w.)
- CMP concentration [2]: 15.68 ± 2.12^f,j nmol/g (w.w.)
- CTP concentration [2]: 32.63 ± 3.99^e,i nmol/g (w.w.)
- CoA-SH concentration [2]: 30.57 ± 6.02^f nmol/g (w.w.)
- GDP concentration [2]: 126.70 ± 31.35^a,j nmol/g (w.w.)
- GDP glucose concentration [2]: 49.25 ± 10.33^a nmol/g (w.w.)
- GMP concentration [2]: 91.47 ± 12.35^e,i nmol/g (w.w.)
- GSH concentration [2]: 2821.50 ± 242.82^a,e nmol/g (w.w.)
- GSSG concentration [2]: 219.54 ± 53.36 nmol/g (w.w.)
- GTP concentration [2]: 336.65 ± 35.18^a,e,j nmol/g (w.w.)
- IMP concentration [2]: 102.63 ± 22.09^a nmol/g (w.w.)
- MDA concentration [2]: 4.82 ± 1.73^a,e,i nmol/g (w.w.)
- NAA concentration [2]: 7262.84 ± 749.73^a,e nmol/g (w.w.)
- NADH concentration [2]: 13.12 ± 4.19^e nmol/g (w.w.)
- NADPH concentration [2]: 7.05 ± 2.21 nmol/g (w.w.)
- NADP^+ concentration [2]: 21.27 ± 4.19^b,e,j nmol/g (w.w.)
- NAD^+ concentration [2]: 401.18 ± 34.53^a,e,i nmol/g (w.w.)
- NO2 concentration [2]: 226.40 ± 30.95^b nmol/g (w.w.)
- NO3 concentration [2]: 198.56 ± 25.93^e,i nmol/g (w.w.)
- UDP concentration [2]: 40.38 ± 8.50^a,i nmol/g (w.w.)
- UDP-Gal concentration [2]: 145.14 ± 27.76 nmol/g (w.w.)
